Measurements reported in article PMC9497102, “Thiosemicarbazone Derivatives Developed to Overcome COTI-2 Resistance” (Cancers, 2022).
Converted amounts (≈) assume the structure as drawn. Where two headings read alike, the source gives them in different places. Marks after values point to notes of the source that are not given here. Each block holds one compound with its values, some of them ahead of it.

Assays:
[1] = test system: GLC-4/adr cells (ABCC1-overexpressing); set-up: method as in PMID 33190481; details: cited from earlier work; for IC50: 72 h, MTT; for Relative Resistance GLC-4/adr: IC50 of GLC-4/adr divided by IC50 of parental GLC-4
SW480 cells = test system: SW480 cells; set-up: method as in PMID 33190481; details: 72 h, MTT; cited from earlier work
[2] = set-up: method as in doi:10.1002/ejic.201200360; details: cited from earlier work
SW480/Tria cells = test system: SW480/Tria cells; set-up: method as in PMID 33190481; details: cited from earlier work; for IC50: 72 h, MTT; for Relative Resistance SW480/Tria: IC50 of resistant subline divided by IC50 of parental SW480
[3] = Cyclic voltammetry of iron(III)–ligand (1:2) systems; type: physicochemical; details: cL = 1 mM, pH 7.40, 25 °C, 90% (v/v) DMSO/H2O, 0.01 V/s scan rate
Protocol: (§1) Cyclic voltammograms for the Fe(III) and Cu(II) complexes were recorded in 90% (v/v) DMSO/water solution containing 1 mM ligand and 0.5 mM FeCl3 or 1 mM CuCl2 using a conventional three-electrode system under nitrogen atmosphere and a PC-Controlled Electrochemical Measurement System (EF 451). The ionic strength was 0.10 M, adjusted by TBAN. Samples were purged for 15 min with Ar before recording the cyclic voltammograms. Platinum electrodes were used as the working and auxiliary electrodes, and Ag/AgCl (3 M KCl) was applied as the reference electrode. The electrochemical potentials were converted into the normal hydrogen electrode (NHE) scale by adding 0.222 V. The instrument was calibrated with an aqueous solution of K3[Fe(CN)6] (E1/2 = +0.386 V vs. NHE). Redox potentials were obtained at different scan rates (5–25 mV/s) in the range of −0.8 to +0.1 V. The dependence of the peak current values of the square root of the scan rates is shown in Figure S5 for the iron and copper complexes of COTI-NMeCy.

[4] = Cyclic voltammetry of copper(II)–ligand (1:1) systems; type: physicochemical; details: cL = cCu(II) = 1 mM, pH 7.40, 25 °C, 90% (v/v) DMSO/H2O, 0.01 V/s scan rate
Protocol: as §1

SW480/Coti cells = test system: SW480/Coti cells; set-up: method as in PMID 33190481; details: cited from earlier work; for IC50: 72 h, MTT; for Relative Resistance SW480/Coti: IC50 of resistant subline divided by IC50 of parental SW480
GLC-4 cells = test system: GLC-4 cells; set-up: method as in PMID 33190481; details: 72 h, MTT; cited from earlier work
[5] = set-up: method as in doi:10.1002/ejic.200901174; details: cited from earlier work
[6] = set-up: method as in PMID 21523301; details: cited from earlier work
[7] = Iron(II) complex formation, UV-vis spectrophotometric titrations (anaerobic); type: physicochemical
Protocol: (§2) The UV-vis spectra were recorded using an Agilent Cary 8454 diode array spectrophotometer in the 200 to 950 nm window, and the path length was varied between 1 and 5 cm, depending on the solubility (thus the applicable concentration). For the spectrophotometric titrations, the same instruments (Metrohm 665 Dosimat burette, Orion 710A pH-meter, Metrohm combined pH glass electrode) and experimental setup (ionic strength: 0.10 M (KCl); titrant: 0.10 M carbonate-free KOH solution in 30% (v/v) DMSO/H2O; samples: prepared in 30% (v/v) DMSO/H2O; calibration: method of Irving et al.; pH range: 1.0 to 13.5; and sample volume: 10 cm^3) were used as in our previous work. Argon overpressure was used for the Fe(II)-containing samples when the Fe(II) stock solution was added to the samples in tightly closed titration vessels, which were previously completely deoxygenated (for 20 min). Measurements were taken with ligands (10–80 μM, depending on solubility) in the presence of 1, 0.5, and 0.3 equiv. of Cu(II), Fe(II), and Fe(III) ions. Equilibrium constants, such as the proton dissociation constants (pKa) of the ligands, the overall stability constants (logβ) of the metal complexes, and the UV-vis spectra of the individual ligand or complex species were computed using the program PSEQUAD [18], as was the case in our previous works.

[8] = Thermodynamic solubility in water at pH 7.4 (UV-vis); type: physicochemical; details: water at pH 7.4 (20 mM HEPES buffer), aqueous buffer, thermodynamic from solid, water pH 7.4 (20 mM HEPES), 25 °C, read-out: S (meas.)
Protocol: (§3) The thermodynamic solubility of COTI-NMeCy, COTI-Nme2, COTI-NH2, and COTI-2 was measured for the saturated solutions in water at pH 7.4 (20 mM HEPES buffer) at 25.0 ± 0.1 °C. The concentrations of the compounds were determined by UV-vis spectrophotometry using stock solutions of the compounds with known concentrations dissolved in pure DMSO, and 50% and 1% (v/v) DMSO/buffered aqueous solution for the calibration. The parallel artificial membrane permeability assay (PAMPA) was applied for the ligands with a Corning Gentest pre-coated PAMPA Plate System. Peff values were calculated according to the equation reported by Yu et al..

[9] = set-up: method as in PMID 33190481; details: after formation of mixed-ligand GSH adduct; cited from earlier work
[10] = Parallel artificial membrane permeability assay (PAMPA); type: in vitro ADME; details: pH 7.4, 25 °C, read-out: Peff
Protocol: as §3

[11] = Copper(II) complex formation, UV-vis titrations and EDTA competition; type: physicochemical
Protocol: as §2
The conditional stability constants (β’) of the Cu(II) complexes were calculated from competition reactions with EDTA at pH = 5.9 using MES (50 mM) when the metal:ligand ratio was 1:1 (clig = cCu between 10 and 80 μM). Individual samples were prepared in which the ligand:EDTA ratio was variable between 1:0 and 1:50. After a 3 h incubation period, UV-vis spectra were collected. The calculation of the β’ (CuL) values was performed following the same method as that in our previous work using the logβ’5.90 = 13.89 of complex [Cu(EDTA)]^2− obtained from the previously reported equilibrium constants of EDTA and its Cu(II) complex.

[12] = Distribution coefficient, shake-flask n-octanol/buffer pH 7.4; type: physicochemical; details: n-octanol/buffered aqueous solution; n-octanol/water, pH 7.4, 25 °C; read-out: log D7.4 (meas.)
Protocol: Distribution coefficient (D7.4) values of COTI-NH2 were determined by the shake-flask method in n-octanol/buffered aqueous solution at pH 7.4 in 20 mM phosphate buffer (0.10 M KCl) at 25.0 ± 0.2 °C following a similar approach to that reported in our previous works. The other compounds and all of their Cu(II) complexes were too lipophilic to obtain experimental data. Thus, the logP values were calculated for COTI-NMeCy, COTI-Nme2, and COTI-2 (MarvinSketch,version 16.12.12.0, calculation module developed by ChemAxon (Budapest, Hungary), http://www.chemaxon.com/products/marvin/marvinsketch/ (accessed on 20 August 2022)).

[13] = Iron(III) complex formation, UV-vis spectrophotometric titrations; type: physicochemical
Protocol: as §2

[14] = pKa by UV-vis spectrophotometric titrations; type: physicochemical; details: 30% (v/v) DMSO/H2O solution, I = 0.1 M (KCl), 25 °C
Protocol: as §2

[15] = Zinc(II) complex formation, UV-vis spectrophotometric titrations; type: physicochemical
[16] = T = 25.0 °C, I = 0.10 M (KCl), 30% (v/v) DMSO/H2O
[17] = calculated at cM = 1 μM, cL = 10 μM, pH = 7.40

Structure (SMILES): NC(=S)NN=Cc1ncccc1N [Triapine, 3-aminopyridine-2-carboxaldehyde thiosemicarbazone]
IC50 [1]: 0.57 ± 0.05 µM
Relative Resistance GLC-4/adr [1]: 0.9 ^n.s.
IC50 (SW480 cells): 0.82 ± 0.18 µM
logD7.4 [2]: +0.85
IC50 (SW480/Tria cells): > 50 µM
Relative Resistance SW480/Tria (SW480/Tria cells): >61
E’ vs. NHE, iron(III)–ligand (1:2) systems [3]: +0.03 V
E′ vs. NHE, copper(II)–ligand (1:1) systems [4]: -0.13 V
IC50 (SW480/Coti cells): 0.81 ± 0.08 µM
Relative Resistance SW480/Coti (SW480/Coti cells): 1.0 ^n.s.
IC50 (GLC-4 cells): 0.65 ± 0.09 µM
logβ [CuL]^+ [5]: 13.9
E′ of the iron complex [6]: +0.07 V

logβ [Fe(II)L2] [7, 16]: 31.21 ± 0.09
logβ [Fe(II)L]^+ [7, 16]: 17.36 ± 0.06
pFe(II) ([7]; –log[free Fe(II)] calculated at cFe = 1 μM, cL = 10 μM, pH = 7.40): 17.4
solubility thermodynamic [8]: 737 µM (≈ 162 µg/mL)
Papp [10]: 6.7 ± 0.7 ×10⁻⁶ cm/s
pCu [11, 17]: 13.1
logβ5.9′ [CuL]^+ ([11]; conditional stability constant, EDTA competition at pH = 5.90): 10.59 ± 0.08
logβ [CuL]^+ ([11]; β = β’ × αH, [H+] = 10^–5.90 M): 16.92
logD [12]: 1.64
pFe(III)* ([13]; Fe(III) hydroxido species also considered as unbound metal, cFe = 1 μM, cL = 10 μM, pH = 7.40): 10.4
logβ [Fe(III)L2]^+ [13, 16]: 32.29 ± 0.08
logβ [Fe(III)L]^2+ [13, 16]: 20.00 ± 0.09
pFe(III) ([13]; –log[free Fe(III)] calculated at cFe = 1 μM, cL = 10 μM, pH = 7.40): 18.5
E′ vs. NHE, copper(II)–ligand (1:1) systems [4]: -0.17 V
pKa ([14]; read-out: pKa (H2L)): 4.39 ± 0.01
pKa ([14]; read-out: pKa (HL)): 12.22 ± 0.01
logβ [ZnL2] [15, 16]: 25.42 ± 0.04
logβ [ZnL]^+ [15, 16]: 14.07 ± 0.04
pZn [15, 17]: 11.6
Structure (SMILES): NC(=S)N/N=C1\CCCc2cccnc21 [COTI-NH2]
IC50 [1]: 3.65 ± 0.41 µM
Relative Resistance GLC-4/adr [1]: 1.0 ^n.s.
IC50 (SW480 cells): 7.85 ± 0.92 µM
redox reaction of the copper(II) complex with GSH [9]: relatively slow redox reaction took place
IC50 (SW480/Tria cells): > 20 µM
Relative Resistance SW480/Tria (SW480/Tria cells): >2.5
IC50 (SW480/Coti cells): 4.39 ± 0.56 µM
Relative Resistance SW480/Coti (SW480/Coti cells): 0.6 ***
IC50 (GLC-4 cells): 3.64 ± 0.39 µM
